The results in this text go back to patent US20240309326A1, “Method of Isolating Adipose-Derived Cell Lines and Uses Thereof” (AGENCY FOR SCIENCE, TECHNOLOGY AND RESEARCH, priority 2021, published 2024).

The data set has as its system Ph9F-1x. The data set can be described thus: Adipogenesis of fish adipose-derived cell line (AdipoRed / Hoechst 33342 staining). The class given is cell-based, Pangasianodon hypophthalmus. Particulars: for adipogenesis induction efficiency: addition to adipogenesis induction composition (FIGS. 22 and 25). The method, then: Adipogenesis of adipose-derived cells were induced. The cells were resuspended at cell density of 100,000 cells/ml of complete growth medium and seeded at 100 μl/well into gelatin-coated 96-well flat-bottom black plates. The cells were incubated at 28° C. in a humidified atmosphere containing 5% CO2. […] After 3 and 6 days of adipogenic induction, the cells were induced with DMEM, 15% FBS, 0.1% fish serum, 300 U/ml of penicillin, 300 μg/mL of streptomycin, and adipogenic induction cocktail 2, containing 167 nM of insulin. Linoleic acid-oleic acid albumin (LAOA, Sigma-Aldrich), docosahexaenoic acid (DHA, Cayman Chemical), eicosapentaenoic acid (EPA, Cayman Chemical), oleic acid albumin (OAA, Sigma Aldrich), and linoleic acid albumin (LAA, Sigma Aldrich) can also be added to the adipogenic induction cocktail, if required. […] The cells were imaged using N-STORM/TIRF microscope and analysed using NIS-Element software.

Where [1] appears, read: 100 μM vitamin, Essential 6, fish serum, LAOA, IBMX, dexamethasone, after 6 days.

Take `O=C(O)CCCC[C@@H]1SC[C@@H]2NC(=O)N[C@@H]21` [biotin]: under setting [1], the “percentage of matured adipocytes” value is “did not significantly enhance” and the total lipid content result is on record as “did not significantly enhance”. As to `CC(=O)Oc1c(C)c(C)c2c(c1C)CCC(C)(CCC[C@H](C)CCC[C@H](C)CCCC(C)C)O2` (stereo partly drawn) [α-tocopherol acetate], under setting [1], the “percentage of matured adipocytes” value is on record as “did not significantly enhance” and the total lipid content entry is “did not significantly enhance”.

Consider `CC(C)(CO)[C@H](O)C(=O)NCCC(=O)O` [D-pantothenic acid], for which, under setting [1], the “percentage of matured adipocytes” value is “did not significantly enhance” and the total lipid content entry is recorded as “did not significantly enhance”. For the molecule `O=C1O[C@H]([C@@H](O)CO)C(O)=C1O` [vitamin C], the adipogenesis induction efficiency result is recorded as “no adverse effects”. Regarding `CC/C=C\C/C=C\C/C=C\C/C=C\C/C=C\C/C=C\CCC(=O)O` [DHA, docosahexaenoic acid], the “nuclei count after adipogenesis” value (100 μM, final 3 days of adipogenesis) was “significantly reduced”. On to oleic acid albumin [OAA], for which the “percentage of matured adipocytes” value (100 μM, 6 days, as compared to LAA) was “significantly enhanced”. Turning to `C=C1CC[C@H](O)C/C1=C/C=C1\CCC[C@]2(C)[C@@H]([C@H](C)CCCC(C)C)CC[C@@H]12` [vitamin D3], the adipogenesis induction efficiency result is “no adverse effects”. Under setting [1], the “percentage of matured adipocytes” value is on record as “did not significantly enhance” and the total lipid content entry is on record as “did not significantly enhance”. Moreover, under “100 μM, 6 days, AdipoRed fluorescence intensity, borderline statistical significance”, the “total lipid content of matured adipocyte (intensity)” value was 3.5×10^9.
